From US20170252433A1, “PSMA-RELATED THERAPIES” (Memorial Sloan Kettering Cancer Center, priority 2014, published 2017)

Assays:
[1] = test system: PSMA-expressing prostate cancer cells (LNCaP-wt, PC3-hPSMA) and PC3-wt; test: Cytoplasmic calcium quantification (Fluo4 assay); type: cell-based, human
Procedure: Cells were seeded at a density of 10,000 per well on a 96-well plate and grown overnight. Loading of the calcium-sensing dye Fluo4 (Life Technologies, Calrsbad, Calif.) was performed according to the manufacturer's instructions. Where indicated the cells were treated with thapsigargin (1 μM, Tocris, Minneapolis, Minn.), L-Quisqualic acid (110 μM, Tocris), 3,5-DHPG (0.67 mM, Tocris), L-AP3 (125 μM, Tocris), U73122 (50 μM, Tocris), and 2-PMPA (100 μM, Tocris) immediately before measuring calcium levels, with a SpectraMax M5 plate reader (Molecular Devices, Sunnyvale, Calif.).
The effect of PSMA expression on calcium homeostasis in prostate cancer cell lines was evaluated using the fluorimetric Fluo4 assay kit (Invitrogen), according to the supplier's instructions. The plate was excited at 490 nm, and fluorescence emission was monitored at 520 nm with the SpectraMax M5 plate reader (Molecular Devices). […] To examine calcium accumulation in the cytoplasm, the cells were treated with thapsigargin (1 μM, Tocris) immediately prior to taking measurements with the plate reader. […] Furthermore, we investigated whether PSMA facilitates calcium signaling via the mGluR Group I receptors through its enzymatic activity. The cells were treated with either L-Quisqualic acid (110 μM; mGluR I agonist, Tocris), L-AP3 (125 μM; mGluR I antagonist, Tocris) or a PSMA inhibitor (100 μM, Tocris), immediately prior to taking calcium measurements.

[2] = test system: LNCaP, LNCaP-KD, PC3-PSMA and PC3-wt cells; test: In vitro chemotherapy, cell viability (Alamar blue); details: 200 nM, overnight
Procedure: Cells were seeded in a 96-well format (2,500 cells per well), and grown for 48 h. They were then treated with the following drugs at a final concentration of 200 nM: Doxorubicin, Taxol, AZD6244, BEZ235, Lapatinib, and Velcade (all purchased from Selleck Chemicals, Houston, Tex.). For combination therapy, cells were treated with 2-PMPA (5 μM final concentration). After overnight incubation in the presence of the drugs, cell viability was determined with the Alamar blue method according to the supplier's guidelines (Life Technologies, Carlsbad, Calif.)
Given that PSMA affects the phosphorylation status of multiple targets, it was investigated whether inhibition of PSMA can counteract resistance to various chemotherapeutics used in the clinic or under clinical trials. LNCaP and PCS3-PSMA cells were seeded at a density of 2,500 cells per well in a 96-well format, and after 48 hours growth the cells were treated with the drugs (Doxorubicin (Adriamycin; DNA intercalator), Taxol (Paclitaxel; microtubule stabilizer), AZD6244 (Selumetinib; MEK1 & ERK1/2 inhibitor), BEZ235 (Dactolisib; PI3K & mTOR inhibitor), Lapatinib (EGFR and ErbB2 inhibitor), or Velcade (Bortezomib; 20S proteasome inhibitor), 200 nM final concentration in 1×PBS) or with the drugs (200 nM final concentration) and 2-PMPA (5 μM final concentration). After overnight incubation, cell viability was assessed fluorimetrically with the Alamar blue method (Invitrogen), according to the supplier's protocol.

For `N[C@@H](CP(=O)(O)O)C(=O)O` [L-AP3], the cytoplasmic calcium levels ([1]; PSMA-expressing cells, PSMA inhibitor 100 μM, L-AP3 125 μM, FIG. 1c) was “lowered calcium levels”.
In the case of `COc1ccc2c(c1)CC[C@@H]1[C@@H]2CC[C@]2(C)[C@@H](NCCCCCCN3C(=O)C=CC3=O)CC[C@@H]12` [U73122], the cytoplasmic calcium levels ([1]; PSMA inhibition compared with Phospholipase C inhibitor U73122 50 μM, FIG. 1d) is reported as “reduction in calcium levels”.
In the case of `CC(C)C[C@H](NC(=O)[C@H](Cc1ccccc1)NC(=O)c1cnccn1)B(O)O` [Velcade, Bortezomib], the “sensitivity of PC3-wt cells compared with PC3-PSMA” value [2] is reported as “more sensitive”.
In the case of `C/C=C(/C)C(=O)O[C@H]1C(C)=C2[C@H]([C@@H]1OC(=O)CCCCCCC)[C@@](C)(OC(C)=O)C[C@H](OC(=O)CCC)[C@@]1(O)[C@H]2OC(=O)[C@@]1(C)O` [thapsigargin], the “calcium accumulation in the cytoplasm” value ([1]; thapsigargin 1 μM, PSMA-expressing cells versus PC3-wt, FIG. 1b) is reported as “significant buildup of calcium in their cytoplasm”.
